Measurements as given in the supplement of paper PMC10307832.

Tests used:
Experiment in all cases: relative viability (nuclei count vs DMSO), 5 days (fraction); higher = more cells survive
[1] = compound: O=C(O)c1ccc2c(c1)nc(Nc1cccc(Cl)c1)c1ccncc12 [Silmitasertib] + CC(C)C[C@H](NC(=O)[C@H](Cc1ccccc1)NC(=O)c1cnccn1)B(O)O [Bortezomib] (partner 0.002 µM)
Method in brief: (§1)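 Medians of duplicate plates are given as relative viability. That measure is the nuclei count in treated wells divided by the count in vehicle wells. Counts were taken on 4× images of lung cancer cell lines in 1536-well plates, 5 days after pin-tool dosing the day after seeding with one drug alone or a fixed anchor-drug dose plus five library-drug doses (not always all listed) in √10 steps.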

[2] = compound: O=C(O)c1ccc2c(c1)nc(Nc1cccc(Cl)c1)c1ccncc12 [Silmitasertib] + CC1(C)CCC(c2ccc(Cl)cc2)=C(CN2CCN(c3ccc(C(=O)NS(=O)(=O)c4ccc(N[C@H](CCN5CCOCC5)CSc5ccccc5)c(S(=O)(=O)C(F)(F)F)c4)cc3)CC2)C1 [Navitoclax] (partner 0.5 µM)
Method in brief: as §1

[3] = compound: O=C(O)c1ccc2c(c1)nc(Nc1cccc(Cl)c1)c1ccncc12 [Silmitasertib] + COc1cccc2cc(-c3nc([C@H]4CC[C@H](C(=O)O)CC4)n4ncnc(N)c34)[nH]c12 [OSI-027] (partner 0.5 µM)
Method in brief: as §1

[4] = compound: O=C(O)c1ccc2c(c1)nc(Nc1cccc(Cl)c1)c1ccncc12 [Silmitasertib] + CS(=O)(=O)CCNCc1ccc(-c2ccc3ncnc(Nc4ccc(OCc5cccc(F)c5)c(Cl)c4)c3c2)o1 [Lapatinib] (partner 2 µM)
Method in brief: as §1

[5] = compound: O=C(O)c1ccc2c(c1)nc(Nc1cccc(Cl)c1)c1ccncc12 [Silmitasertib] + CS(=O)(=O)N1CCN(Cc2cc3nc(-c4cccc5[nH]ncc45)nc(N4CCOCC4)c3s2)CC1 [Pictilisib] (partner 1 µM)
Method in brief: as §1

Cell Line | relative viability ([1]; first compound 0.04 µM) | relative viability ([1]; first compound 0.4 µM) | relative viability ([1]; first compound 1.265 µM) | relative viability ([1]; first compound 4 µM) | relative viability ([2]; first compound 0.04 µM) | relative viability ([2]; first compound 0.4 µM) | relative viability ([2]; first compound 1.265 µM) | relative viability ([2]; first compound 4 µM) | relative viability ([3]; first compound 0.04 µM) | relative viability ([3]; first compound 0.4 µM) | relative viability ([3]; first compound 1.265 µM) | relative viability ([3]; first compound 4 µM) | relative viability ([4]; first compound 0.04 µM) | relative viability ([4]; first compound 0.4 µM) | relative viability ([4]; first compound 1.265 µM) | relative viability ([4]; first compound 4 µM) | relative viability ([5]; first compound 0.04 µM) | relative viability ([5]; first compound 0.4 µM) | relative viability ([5]; first compound 1.265 µM) | relative viability ([5]; first compound 4 µM)
NCI-H1755 | 0.91 | 0.905 | 0.95 | 0.945 | 1.04 | 0.942 | 0.991 | 0.959 | 0.726 | 0.764 | 0.728 | 0.721 | 1.03 | 0.979 | 1.07 | 1.16 | 0.431 | 0.441 | 0.441 | 0.375
NCI-H1792 | 0.943 | 0.68 | 0.53 | 0.864 | 0.651 | 0.512 | 0.573 | 0.414 | 0.815 | 0.675 | 0.782 | 0.699 | 0.886 | 0.711 | 0.874 | 0.608 | 0.28 | 0.294 | 0.283 | 0.286
NCI-H2087 | 0.737 | 0.656 | 0.657 | 0.421 | 1.11 | 0.855 | 0.689 | 0.319 | 0.507 | – | 0.513 | 0.18 | 0.924 | 0.753 | 0.727 | 0.377 | 0.997 | 0.513 | 0.577 | 0.347
H3255 | 0.937 | 0.848 | 0.741 | 0.36 | 0.593 | 0.294 | 0.347 | 0.208 | 0.73 | 0.591 | 0.545 | 0.613 | 0.239 | 0.227 | 0.204 | 0.169 | 0.537 | 0.448 | 0.414 | 0.345
NCI-H23 | 1.01 | – | 0.782 | 0.706 | 0.957 | – | 0.732 | 0.728 | 0.706 | – | 0.423 | 0.206 | 1.45 | – | 0.73 | 0.355 | 0.54 | – | 0.38 | 0.26
HCC-827 | 1.04 | – | 1.2 | 0.89 | 1.11 | – | 1.09 | 1.19 | 0.872 | – | 0.702 | 0.736 | 0.197 | – | 0.193 | 0.135 | 1.04 | – | 0.751 | 0.788
HCC-78 | 0.609 | 0.333 | – | 0.551 | 0.892 | 0.672 | 0.757 | 0.65 | 0.437 | 0.346 | 0.369 | 0.335 | 1.15 | 0.511 | 0.187 | 0.322 | 0.23 | 0.231 | 0.226 | 0.205
UMC-11 | 0.679 | 0.588 | 0.65 | 0.542 | 0.337 | 0.278 | 0.207 | 0.162 | 0.491 | 0.485 | 0.438 | 0.402 | 1.14 | 0.949 | 0.965 | 0.359 | 0.992 | 0.903 | 0.652 | 0.436
NCI-H1975 | 0.349 | 0.283 | 0.423 | 0.331 | 1.04 | 0.699 | 1.06 | 0.716 | 0.67 | – | 0.645 | 0.66 | 0.901 | 0.731 | 0.719 | 0.739 | 0.313 | 0.25 | 0.207 | 0.208
COR-L23 | 1.15 | 0.723 | 0.919 | 0.932 | 1.1 | 0.982 | 1.06 | 0.968 | 0.786 | 0.496 | 0.828 | 0.419 | 1.15 | 0.792 | 0.92 | 0.457 | 0.945 | 0.586 | 0.636 | 0.248
CAL-12T | 1.12 | 0.949 | 0.777 | 0.709 | 1.39 | 1.16 | 1.19 | 0.387 | 0.839 | 0.542 | 0.29 | 0.23 | 0.776 | 0.62 | 0.533 | 0.464 | 0.532 | 0.394 | 0.34 | 0.232
SW 1573 | 1.09 | 1.15 | 1.02 | 0.977 | 1.07 | 1.02 | 0.824 | 0.815 | 0.648 | 0.616 | 0.548 | 0.319 | 1.1 | 1.07 | 1.11 | 0.67 | 0.561 | 0.459 | 0.462 | 0.484
NCI-H2126 | 1.08 | 0.98 | 1.08 | 1.05 | 0.897 | 0.847 | 0.81 | 0.745 | 0.725 | – | 0.596 | 0.602 | 0.803 | 0.759 | 0.691 | 0.544 | 0.512 | 0.508 | 0.45 | 0.454
